Results from article PMC10224356, “Trisubstituted 1,3,5-Triazines as Histamine H4 Receptor Antagonists with Promising Activity In Vivo” (Molecules, 2023).
Blank lines part the entries; values can stand above or below the compound they belong to.

How the values were obtained:
[1] = tested on: mice; assay: Chloroquine-induced pruritus; format: in vivo; details: 10 mg/kg, 30 min observation
Description: When comparing the activity of the tested in both used models, it should be noted that the efficacy (higher maximal effect) and potency (lower doses needed to obtain the same result) of the compound were better in histamine-induced pruritus. Nevertheless, compound 6 was also active in histamine-independent itch, which contrasts with the activity of pyrilamine representing a commonly used drug in the treatment of pruritus. […] The wide spectrum of antipruritic activity of compound 6 is very promising, considering that histamine-independent itch is still a crucial clinical problem in pruritus treatment.
(§1) The surface (around 2 cm^2) of the mice’s nape was shaved at least 2 days prior to experiments. On the day of the experiment, mice were individually placed in plastic chambers (15 × 15 × 30 cm) and after the 30 min habituation period, they were given an intradermal (i.d.) injection of histamine dihydrochloride (10 µmol/site) or chloroquine (CQ, 200 µg/site), which were dissolved in physiological saline and administrated in the constant volume of 20 μL. Immediately after the injection, scratching (series of movements considered as a single scratching bout) of the injected site by the hind paw was counted for 60 min or 30 min after histamine and CQ administration, respectively. Before pruritogens injection different groups of mice were treated i.p. with vehicle (10 mL/kg, negative control) or the dose–response of investigated compound.
(§2) Figure 9 The effect of compound 6 and reference compound pyrilamine (Pyr) on the number of scratching bouts during 60 min-long observation in histamine-induced pruritus (A) and 30 min-long observation in chloroquine-induced pruritus (B). The tested compound or vehicle (1% solution of Tween 80) was administered intraperitoneally (i.p.) 30 min before the intradermal (i.d.) injection of histamine or chloroquine. The results are presented as bar plots showing the mean ± SEM. Statistical analysis: one-way ANOVA followed by Dunnett’s post hoc test, * p < 0.05, ** p < 0.01, *** p < 0.001, n = 8–10 mice per group.

[2] = tested on: mice; assay: Histamine-induced pruritus; format: in vivo; details: 10 mg/kg, 60 min observation (control 62.11 ± 9.4)
Protocol: Intradermal injection of histamine induced scratching bouts in the amount of 62.11 ± 9.4. […].
as §1, §2

[3] = PAMPA assay (blood-brain barrier permeability); format: in vitro ADME; details: 200 µM, 5 h
Protocol: This test is a popular method for estimating the possibility of crossing BBB through passive transport. […] Caffeine was used as a standard well-permeable compound.
The Gentest^TM PAMPA Plate System, purchased from Corning (Tewksbury, MA, USA), was used for permeability evaluation. Caffeine (a reference) and the compound tested were dissolved in DMSO (10 mM stocks) and after dilution to 200 μM in PBS (pH 7.4), added to donor wells. Then, after incubation for 5 h at room temperature, concentrations of tested compounds in donor and acceptor wells were estimated by the mass spectra (LC/MS) method as described previously. The UPLC/MS Waters […] TQD system with the TQ Detector (Waters, Milford, CT, USA) was used for this detection. The assay was performed in triplicate. The permeability value (Pe) was calculated using the formula described by Chen et al..

[4] = molecular target: T1, human histamine H4 receptor (Homo sapiens, UniProt Q9H3N8); details: ref 57 (Grosicki et al.); read-out: hH4R Ki; cited from earlier work
T1 construct: made in house; host or cells: Sf9 cells (membrane preparations)

[5] = molecular target: T2, hH4R (Homo sapiens, UniProt Q9H3N8); assay: β-arrestin recruitment assay (LiveBLAzer, Tango-H4-bla U2OS cells); format: cell-based; design: expressed in transfected cells; host or cells: Tango-H4-bla U2OS cells
Protocol: Compounds were tested using LiveBLAzer^TM assay and Tango-H4-bla U2OS cells, allowing the estimation of the percentage of β-arrestin recruitment in response to tested treatments.
All used media and reagents except DMSO and tested compounds were purchased from ThermoFisher Scientific, Waltham, MA, USA. DMSO was from CarlRoth (Karlsruhe, Germany) and histamine was from Sigma Aldrich (Darmstadt, Germany). […] The day before the experiment cells were collected from the culture flask with trypsin and seeded in 384 well black-wall, clear-bottom plate (PerkinElmer, Waltham, MA, USA) in concentration 10,000 cells/well in FreeStyle medium. After 24 h of incubation, the cells were checked under the microscope and the dilutions of tested compounds were prepared and added to the wells. In agonist mode compounds were added to the wells and plates were placed in the incubator (HERAcell240, Heraeus, Hanau, Germany) for 16 h. In antagonist mode, first, the compounds were added to the wells, plates were incubated for 30 min, then histamine solution (corresponding to EC80—500 nM) was added and plates were put in the incubator for 16 h. After this time β-lactamase substrate mixture was prepared and added to wells (8 µL/well). Cells were incubated for 2 h at room temperature in the dark then the signal was read using an EnSpire microplate reader (PerkinElmer, Waltham, MA, USA). Drawing of dose-dependent curves and IC50 calculation for compounds were made using GraphPad Prism 6 (GraphPad Software, San Diego, CA, USA).

[6] = molecular target: T2, hH4R; assay: cAMP accumulation assay (LANCE Ultra cAMP, CHO-K1 cells stably expressing hH4R); format: cell-based; design: expressed in transfected cells
Protocol: Intrinsic activity via the Gα subunit was measured using a LANCE Ultra cAMP detection kit and CHO-K1 cells stably expressing hH4R. Adenyl cyclase was stimulated by forskolin (10 µM).
Intrinsic activity in G protein-dependent pathway was measured with homogenous TR-FRET immunoassay, using LANCE Ultra cAMP kit and CHO-K1 H4R cell line or γ-irradiated recombinant CHO-K1 H4R cells (all from PerkinElmer). […] If the CHO-K1 H4R cell line was used it had been cultivated in DMEM/F12 10% FBS 400 µg/mL geneticin and passaged three times a week. […] The antagonist activity was measured in a white, opaque, 384-well microplate (PerkinElmer) with a total volume of 20 µL. […] After incubation, 5 µL of europium chelate-labelled cAMP tracer and 5 µl of ULight-labelled anti-cAMP mAb working solutions were added, mixed and incubated for 1 h. TR-FRET signal was read using a microplate reader (PerkinElmer, Waltham, MA, USA).

[7] = molecular target: T2, hH4R; assay: as above; format: cell-based; design: expressed in transfected cells; details: antagonist mode

Compound: COc1ccc(CN(CCN(C)C)c2ccccn2)cc1 [pyrilamine, reference compound]
Effect on scratching behaviour, chloroquine-induced pruritus [1]: did not significantly reduce scratching behaviour
Number of scratch bouts, histamine-induced pruritus [2]: 28.56 ± 3.55 scratch bouts

Compound: Cn1c(=O)c2c(ncn2C)n(C)c1=O [Caffeine]
Mass Retention (R) [3]: 1.54%
Pe (permeability coefficient) ± SD ([3]; PBS pH 7.4, permeable if Pe > 1.5 × 10^−6 cm/s): 9.78 ± 1.75 10^−6 cm/s
Mass Retention (R) ([3]; listed as caffeine): 1.54%

melting point: 149 to 153 °C
IC50 ([5]; antagonist mode, histamine 500 nM (EC80), Tango-H4-bla U2OS cells, read-out: β-arrestin hH4R IC50 ± SEM): 41 ± 6 nM
β-arrestin hH4R % of max. Antagonist Activity at 10 µM ([5]; at 10 µM, antagonist mode): 102%
Kb ([5]; calculated from IC50 by Leff–Dougall variant of Cheng–Prusoff equation, read-out: pKb β-arrestin ± SEM (converted)): 6.76 nM
IC50 ([6]; antagonist mode, forskolin 10 µM, histamine 140 nM, CHO-K1 hH4R cells, read-out: cAMP hH4R IC50 ± SEM): 743 ± 30 nM
Kb ([6]; calculated from IC50 by Leff–Dougall variant of Cheng–Prusoff equation, read-out: pKb cAMP ± SEM (converted)): 263 nM
cAMP hH4R % of max. Antagonist Activity at 10 µM [7]: 98%
Compound: CN1CCN(c2nc(N)nc(CC3=CCCCC3)n2)CC1 [Compound 8, 4-(Cyclohexenylmethyl)-6-(4-methylpiperazin-1-yl)-1,3,5-triazin-2-amine]
Ki [4]: 4700 nM
